Measurements reported in US11352371B2, “Thienopyrimidine derivatives as ACC inhibitors and uses thereof” (Gilead Sciences, Inc., priority 2019, dated 2022).

System: HepG2 cells
Test: In vitro De Novo Lipogenesis (DNL) assay, 13C-acetate incorporation into palmitic acid
Format: cell-based
Conditions: 1 hour preincubation, 24 hours with 10 mM 13C-labeled acetate
Method: De Novo Lipogenesis (DNL) was measured in vitro in HepG2 cells by quantifying the incorporation of ^13C-labeled acetate into palmitic acid.
HepG2 cells were plated in growth medium (DMEM (Corning cat #15-018-CM) supplemented with 10% FBS (HyClone cat #SH30071-03), and 1× penicillin, streptomycin, glutamine (Corning cat #30-009-CI)) at 10,000 cells/well in a 384-well cell culture-treated plate (Greiner cat #781091). The cells were then incubated overnight at 37° C., 5% CO2. The next day, the cells were washed twice with sterile DPBS (Corning cat #21-031-CM) and the culture medium was changed to fresh growth medium. The compounds of interest were dosed to cells, followed by a 1 hour incubation at 37° C., 5% CO2. ^13C-labeled acetate (Sigma-Aldrich cat #279315-1G) was added to the culture medium at a concentration of 10 mM and the cells were incubated for 24 hours at 37° C., 5% CO2.
In order to analyze the lipid content of the HepG2 cells, the culture medium was removed and the cells were lysed by adding 30 μL of 0.1 M NaOH. After 5 minutes of incubation at room temperature, 15 μL of cell lysate was transferred to a 384-well deep-well plate (Sigma-Aldrich cat #BR701355-48EA) containing 15 μL of 7.3% KOH in ethanol and mixed. This plate was sealed and incubated at 70° C. for 4 hours to hydrolyze the lipids to free fatty acids. 100 μL of acetonitrile was then added and the plate was spun at 3,700 g for 20 minutes to separate the organic and aqueous phases. 50 μL from the top (organic) phase was transferred to a new 384-well plate (NUNC cat #264573) and the samples were analyzed by mass spectrometry using a RapidFire coupled to a QTOF mass spectrometer. The sum of the area under curve (AUC) for palmitate containing 3 to 7 ^13C was normalized with the AUC of oleate and plotted against compound concentration to determine the potency of ACC inhibitors. […]

Compound | EC50 (Homo sapiens) [nM] | EC50 [nM]
Cc1c(-c2ncco2)sc2c1c(=O)n([C@@H](C)C(=O)NS(=O)(=O)C1(C)CC1)c(=O)n2C[C@H](O[C@@H]1C[C@H]2CC[C@@H](C1)O2)c1cc(F)ccc1OC(F)F [Example 15, (S)-2-(1-((R)-2-(((1R,3s,5S)-8-oxabicyclo[3.2.1]octan-3-yl)oxy)-2-(2-(difluoromethoxy)-5-fluorophenyl)ethyl)-5-methyl-6-(oxazol-2-yl)-2,4-dioxo-1,4-dihydrothieno[2,3-d]pyrimidin-3(2H)-yl)-N-((1-methylcyclopropyl)sulfonyl)propanamide] | 2000 | –
Cc1c(-c2ncco2)sc2c1c(=O)n(C1(C(=O)NS(=O)(=O)C3(C)CC3)CC1)c(=O)n2C[C@H](O[C@@H]1C[C@H]2CC[C@@H](C1)O2)c1cc(F)ccc1OC(F)F [Example 10, 1-(1-((R)-2-(((1R,3s,5S)-8-oxabicyclo[3.2.1]octan-3-yl)oxy)-2-(2-(difluoromethoxy)-5-fluorophenyl)ethyl)-5-methyl-6-(oxazol-2-yl)-2,4-dioxo-1,4-dihydrothieno[2,3-d]pyrimidin-3(2H)-yl)-N-((1-methylcyclopropyl)sulfonyl)cyclopropane-1-carboxamide] | 48.3 | –
COc1ccccc1[C@H](Cn1c(=O)n(C(C)(C)C(=O)NS(=O)(=O)C2CC2)c(=O)c2c(C)c(-c3ncco3)sc21)O[C@@H]1C[C@H]2CC[C@@H](C1)O2 [Example 4, 2-(1-((R)-2-(((1R,3s,5S)-8-oxabicyclo[3.2.1]octan-3-yl)oxy)-2-(2-methoxyphenyl)ethyl)-5-methyl-6-(oxazol-2-yl)-2,4-dioxo-1,4-dihydrothieno[2,3-d]pyrimidin-3 (2H)-yl)-N-(cyclopropylsulfonyl)-2-methylpropanamide] | – | 1.7
Cc1c(-n2nccn2)sc2c1c(=O)n(C(C)(C)C(=O)NS(=O)(=O)C1(C)CC1)c(=O)n2C[C@H](O[C@H]1C[C@H]2CC[C@@H](C1)O2)c1ccccc1OC(F)F [Example 21, 2-(1-((R)-2-(((1R,3r,5S)-8-oxabicyclo[3.2.1]octan-3-yl)oxy)-2-(2-(difluoromethoxy)phenyl)ethyl)-5-methyl-2,4-dioxo-6-(2H-1,2,3-triazol-2-yl)-1,4-dihydrothieno[2,3-d]pyrimidin-3(2H)-yl)-2-methyl-N-((1-methylcyclopropyl)sulfonyl)propanamide] | 29.7 | –
Cc1c(-c2ncco2)sc2c1c(=O)n(C1(C(=O)NS(=O)(=O)C3(C)CC3)CC1)c(=O)n2C[C@H](O[C@@H]1C[C@H]2CC[C@@H](C1)O2)c1ccccc1OC(F)F [Example 14, 1-(1-((R)-2-(((1R,3s,5S)-8-oxabicyclo[3.2.1]octan-3-yl)oxy)-2-(2-(difluoromethoxy)phenyl)ethyl)-5-methyl-6-(oxazol-2-yl)-2,4-dioxo-1,4-dihydrothieno[2,3-d]pyrimidin-3(2H)-yl)-N-((1-methylcyclopropyl)sulfonyl)cyclopropane-1-carboxamide] | 29.8 | –
Cc1c(-n2nccn2)sc2c1c(=O)n(C1(C(=O)NS(=O)(=O)C(C)(C)C)CC1)c(=O)n2C[C@H](O[C@@H]1C[C@H]2CC[C@@H](C1)O2)c1ccccc1OC(F)F [Example 27, 1-(1-((R)-2-(((1R,3s,5S)-8-oxabicyclo[3.2.1]octan-3-yl)oxy)-2-(2-(difluoromethoxy)phenyl)ethyl)-5-methyl-2,4-dioxo-6-(2H-1,2,3-triazol-2-yl)-1,4-dihydrothieno[2,3-d]pyrimidin-3(2H)-yl)-N-(tert-butylsulfonyl)cyclopropane-1-carboxamide] | 363 | –
Cc1c(-c2ncco2)sc2c1c(=O)n(C(C)(C)C(=O)NS(=O)(=O)c1ccccn1)c(=O)n2C[C@H](O[C@@H]1C[C@H]2CC[C@@H](C1)O2)c1cc(F)ccc1OC(F)F [Example 9, 2-(1-((R)-2-(((1R,3s,5S)-8-oxabicyclo[3.2.1]octan-3-yl)oxy)-2-(2-(difluoromethoxy)-5-fluorophenyl)ethyl)-5-methyl-6-(oxazol-2-yl)-2,4-dioxo-1,4-dihydrothieno[2,3-d]pyrimidin-3(2H)-yl)-2-methyl-N-(pyridin-2-ylsulfonyl)propanamide] | 215 | –
COc1ccccc1[C@H](Cn1c(=O)n([C@@H](C)C(=O)NS(=O)(=O)C(C)(C)C)c(=O)c2c(C)c(-c3ncco3)sc21)O[C@@H]1C[C@H]2CC[C@@H](C1)O2 [Example 17, (S)-2-(1-((R)-2-(((1R,3s,5S)-8-oxabicyclo[3.2.1]octan-3-yl)oxy)-2-(2-methoxyphenyl)ethyl)-5-methyl-6-(oxazol-2-yl)-2,4-dioxo-1,4-dihydrothieno[2,3-d]pyrimidin-3(2H)-yl)-N-(tert-butylsulfonyl)propanamide] | 41.1 | –

Other lines, results leading:

EC50 (Homo sapiens) [nM] | EC50 [nM] | Compound
10.2 | – | Cc1c(-n2nccn2)sc2c1c(=O)n(C1(C(=O)NS(=O)(=O)C(C)(C)C)CC1)c(=O)n2C[C@H](O[C@@H]1C[C@H]2CC[C@@H](C1)O2)c1cc(F)ccc1OC(F)F [Example 29, 1-(1-((R)-2-(((1R,3s,5S)-8-oxabicyclo[3.2.1]octan-3-yl)oxy)-2-(2-(difluoromethoxy)-5-fluorophenyl)ethyl)-5-methyl-2,4-dioxo-6-(2H-1,2,3-triazol-2-yl)-1,4-dihydrothieno[2,3-d]pyrimidin-3(2H)-yl)-N-(tert-butylsulfonyl)cyclopropane-1-carboxamide]
1 | – | COc1ccccc1[C@H](Cn1c(=O)n(C2(C(=O)NS(=O)(=O)C3(C)CC3)CC2)c(=O)c2c(C)c(-n3nccn3)sc21)O[C@@H]1C[C@H]2CC[C@@H](C1)O2 [Example 25, 1-(1-((R)-2-(((1R,3s,5S)-8-oxabicyclo[3.2.1]octan-3-yl)oxy)-2-(2-methoxyphenyl)ethyl)-5-methyl-2,4-dioxo-6-(2H-1,2,3-triazol-2-yl)-1,4-dihydrothieno[2,3-d]pyrimidin-3(2H)-yl)-N-((1-methylcyclopropyl)sulfonyl)cyclopropane-1-carboxamide]
1 | – | COc1ccccc1[C@H](Cn1c(=O)n([C@H](C)C(=O)NS(=O)(=O)C2(C)CC2)c(=O)c2c(C)c(-c3ncco3)sc21)O[C@@H]1C[C@H]2CC[C@@H](C1)O2 [Example 18, (R)-2-(1-((R)-2-(((1R,3s,5S)-8-oxabicyclo[3.2.1]octan-3-yl)oxy)-2-(2-methoxyphenyl)ethyl)-5-methyl-6-(oxazol-2-yl)-2,4-dioxo-1,4-dihydrothieno[2,3-d]pyrimidin-3(2H)-yl)-N-((1-methylcyclopropyl)sulfonyl)propanamide]
1.9 | – | COc1ccccc1[C@H](Cn1c(=O)n([C@@H](C)C(=O)NS(=O)(=O)C2(C)CC2)c(=O)c2c(C)c(-c3ncco3)sc21)O[C@@H]1C[C@H]2CC[C@@H](C1)O2 [Example 16, (S)-2-(1-((R)-2-(((1R,3s,5S)-8-oxabicyclo[3.2.1]octan-3-yl)oxy)-2-(2-methoxyphenyl)ethyl)-5-methyl-6-(oxazol-2-yl)-2,4-dioxo-1,4-dihydrothieno[2,3-d]pyrimidin-3(2H)-yl)-N-((1-methylcyclopropyl)sulfonyl)propanamide]
2.9 | – | COc1ccc(F)cc1[C@H](Cn1c(=O)n(C(C)(C)C(=O)NS(=O)(=O)C2(C)CC2)c(=O)c2c(C)c(-c3ncco3)sc21)O[C@@H]1C[C@H]2CC[C@@H](C1)O2 [Example 5, 2-(1-((R)-2-(((1R,3s,5S)-8-oxabicyclo[3.2.1]octan-3-yl)oxy)-2-(5-fluoro-2-methoxyphenyl)ethyl)-5-methyl-6-(oxazol-2-yl)-2,4-dioxo-1,4-dihydrothieno[2,3-d]pyrimidin-3(2H)-yl)-2-methyl-N-((1-methylcyclopropyl)sulfonyl)propanamide]
